One data set deals with XBP1, IRE1, GRP78, CHOP. The experiment in a line: Real-time RT-PCR of ER stress genes in CLL cells from patients undergoing flavopiridol treatment. The data set is classed as in vivo, human. Particulars: CLL patients n=10, 4.5 hour. How it is done: (§1) RNA was extracted using TRIzol reagent (Invitrogen, Carlsbad, Calif.) and purified using QIAGEN RNeasy columns (Qiagen, Valencia, Calif.). cDNA was prepared with SuperScript First-Strand Synthesis System (Invitrogen). Real-time PCR was performed using primers purchased from Applied Biosystems. Detection was performed using an ABI Prism 7700 sequence detection system (Applied Biosystems). Average relative expression (treatment compared with vehicle) was normalized to the internal control gene CD52. Primers to detect spliced XBP1 were designed using Primer 3 software and purchased from IDT. Samples were analyzed on 10% acrylamide gels.

In a further data set the test system is CLL cells. The experiment in a line: Cell viability by annexin V/PI flow cytometry in CLL cells. How it is done:
Percent of live cells was determined by staining with annexin V-fluorescein isothiocyanate and propidium iodide (PI). After exposure to agents, cells were washed with PBS and stained in 1× binding buffer (BD Biosciences, Franklin Lakes, N.J.). Cell viability was assessed by flow cytometry using a Beckman-Coulter Cytomics FC500 cytometer. Data were analyzed with the CXP Cytometer software package (Beckman-Coulter). A total of 10,000 cells were counted for each sample. The cells treated with flavopiridol were washed after 4 hours with PBS and re-suspended in regular growth medium (RPMI 1640) supplemented with 10% human serum and antibiotics for the remainder of the incubation time. […] For all the other conditions, cells were incubated with the respective drugs for 24 hours continuously.
CLL cells were suspended in buffer V (Amaxa kit, Lonza, Allendale, N.J.) and nucleofection was performed using program U016 (5 μg siRNA and 1×10^7 cells per cuvette). Scrambled siRNA and siRNAs to ATG5, ATG7 and ASK1 were purchased from Sigma-Aldrich. Cells were immediately suspended in warm, complete media supplemented with 10% human serum, and RNA was extracted after 36 hours. For CDK1 and CDK5, siRNAs were purchased from Applied Biosystems (Carlsbad, Calif.). Transfections were done using 5 nM siRNA per cuvette, and RNA was harvested at 48 hours.

Another data set relates to IRE1-ASK1-TRAF2 complex. Briefly: Co-immunoprecipitation of IRE1-ASK1-TRAF2 complex in 697 cells. The data set is classed as cell-based. On the procedure: (§2) Proteins extracted from whole cell lysates (50 μg/lane) were separated on polyacrylamide gels and transferred on nitrocellulose membrane. Antibodies used for immunoblots included LC3, IRE1α, TRAF2, PI3K III, ATG4C, ATG5-12, UVRAG, Beclin-1 (Cell Signaling, Boston, Mass.), GAPDH, Nrf2, ASK1, ULK1 (Santa Cruz Biotechnology), and Bif-1, ATG14-Barkor (Sigma-Aldrich, St Louis, Mo.). Species-appropriate secondary antibodies were obtained from BioRad Laboratories (Hercules, Calif.). Following antibody incubations, proteins were detected using a chemiluminescent substrate (BioRad Laboratories). For co-immunoprecipitations, TrueBlot beads (eBiosciences, San Diego, Calif.) and One-hour IP Western kit (GenScript, Piscataway, N.J.) were used according to manufacturer protocols. Quantification was done using FluorChem Q (Alpha Innotech, San Leandro Calif.).

Data set [1] concerns cell lines 293T, RAW and 697, normal B cells. The experiment in a line: XBP1 splicing PCR in normal B cells and cell lines. The data set is classed as cell-based. How it is done:
as §1

The test system of another data set is p62. Briefly: p62 immunoblot in CLL cells treated in vitro. The data set is classed as cell-based, human. Particulars: flavopiridol 2 μM, 4 hours. How it is done: as §2
The test system of a further data set is 697 cells. The experiment in a line: ChIP assay of ATF6 at GRP78 promoter in 697 cells. The class given is cell-based. Particulars: relative to IgG control. How it is done: In brief, cells were treated with 37% formaldehyde to ensure crosslinking of proteins to DNA. Cells were lysed and sonicated to shear the chromatin to fragments of approximately 500 bp. Sheared chromatin was incubated with ATF6 antibody (LifeSpan Biosciences, Seattle, Wash.), followed by precipitation, washing and reversing of the crosslinks Purified DNA was then analyzed by real-time quantitative PCR using primers to the GRP78 promoter region. Primers were designed using Primer 3 software and purchased from IDT (Coralville, Iowa).

Another data set relates to ATF6. Briefly: ATF6 nuclear translocation by confocal fluorescence microscopy in CLL cells. The data set is classed as cell-based, human. Particulars: CLL patient cells, flavopiridol 2 μM or thapsigargin 1 μM, 4 hours. How it is done:
After 4 hours exposure to agents, cells were washed in phosphate-buffered saline (PBS) and made adherent on a microscope slide by centrifugation in a Cytospin3 (Shandon) centrifuge. Immediately after cytospin, cells were fixed in cold acetone. Next, the cells were incubated in blocking solution (2% bovine serum albumin in PBS) and stained for LC3 (Cell Signaling, Boston, Mass.)) and Lamp2 (Santa Cruz Biotechnology, Santa Cruz, Calif.) by incubating separately with the respective primary antibodies over night, in 4° C., followed by incubation with fluorescent secondary antibodies (Invitrogen, Carlsbad, Calif.): Alexa fluor 594 (red) anti-rabbit for LC3 and Alexa fluor 488 (green) anti-mouse for Lamp2. Nuclei were stained blue with DAPI (Vector Laboratories, Burlingame, Calif.). Images were taken using a 60× objective and 4× digital zoom with Olympus Fluoview 1000 Laser Scanning Confocal microscope at the Ohio State University Campus Microscopy and Imaging Facility. ATF6 antibody was purchased from LifeSpan Biosciences (Seattle, Wash.) and Nrf2 was from Santa Cruz Biotechnology (Santa Cruz, Calif.). Nuclei were evaluated for ATF6 and Nrf2 using confocal microscopy to collect Z stacks, approximately 45 slices per cell, 0.2 μm each.

Counter-ions that a name gives are not always drawn.

For the compound `CN1CC[C@H](c2c(O)cc(O)c3c(=O)cc(-c4ccccc4Cl)oc23)[C@H](O)C1` [flavopiridol, (cis-5,7-dihydroxy-2-(2-chlorophenyl)-8-[4-(3-hydroxy-1-methyl)-piperidin-yl]-1-benzopyran-4-one)hydrochloride], the “expression of XBP1, IRE1 and GRP78 genes, pre-treatment vs end of infusion” value in the data set on XBP1, IRE1, GRP78, CHOP was “significant increases in XBP1, IRE1 and GRP78 genes”. Further, the “effect of ASK1 siRNA vs scrambled siRNA on sensitivity to the agent” value with CLL cells (CLL cells n=5, flavopiridol 2 μM) is “significantly (P=0.005) more resistant”. Also, in the data set on CLL cells (CLL cells, annexin/PI negative, CQ 0.5 μM, flavopiridol 4 hours then washed, CQ continuous 24 hours), the “effect of chloroquine addition on cell death caused by the agent” value is recorded as “significantly enhances the cytotoxicity”. For the same compound, in the data set on CLL cells (CLL cells, viability at 24 hours, thapsigargin 1 μM, flavopiridol 2 μM), the “effect of ATG5/ATG7 siRNA vs scrambled siRNA on cytotoxicity of the agent” value is given as “significantly increased”. Moreover, in the data set on IRE1-ASK1-TRAF2 complex, the “ASK1 and IRE1 protein in TRAF2 co-immunoprecipitates” value was “increased levels of ASK1 and IRE1 protein in TRAF2 co-immunoprecipitates”. Further, the XBP1 splicing entry in data set [1] is “XBP1 splicing is detected”. Further, the p62 protein level entry in the data set on p62 is “p62 levels are decreased”. In addition, in the data set on 697 cells, the “binding of GRP78 promoter region by ATF6” value is “enhanced binding of the GRP78 promoter region by ATF6”. In the data set on ATF6, the ATF6 nuclear translocation result was “increased nuclear translocation”.

The record behind these values is US9044474B2, “Compositions and methods for increasing drug efficacy in cancer” (The Ohio State University, priority 2010, dated 2015).
